What was measured:
Type in all cases: in vivo
[1] = system: blackgrass (Alopecurus myosuroides); assay: Test B postemergence; conditions: 13 to 15 days
Outline: (§1)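 Post-treatment, species sat 13–15 days under greenhouse conditions before visual scoring against controls, 0 (no effect) through 100 (complete control). Application preemergence to sown seeds or postemergence at 1- to 4-leaf stage, using a non-phytotoxic solvent/surfactant formulation.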

corn (Zea mays) [2] = assay: Test B postemergence; conditions: 13 to 15 days
Outline: as §1

[3] = system: cocklebur (Xanthium strumarium); assay: Test B postemergence; conditions: 13 to 15 days
Outline: as §1

[4] = system: wheat (Triticum aestivum); assay: Test B postemergence; conditions: 13 to 15 days
Outline: as §1

wild oat (Avena fatua) = assay: Test B postemergence; conditions: 13 to 15 days
Outline: as §1

[5] = system: velvetleaf (Abutilon theophrasti); assay: Test B postemergence; conditions: 13 to 15 days
Outline: as §1

[6] = system: morning glory (Ipomoea hederacea); assay: Test B postemergence; conditions: 13 to 15 days
Outline: as §1

[7] = system: crabgrass (Digitaria sanguinalis); assay: Test B postemergence; conditions: 13 to 15 days
Outline: as §1

[8] = system: barnyardgrass (Echinochloa crus-galli); assay: Test B postemergence; conditions: 13 to 15 days
Outline: as §1

[9] = system: pigweed (Amaranthus retroflexus); assay: Test B postemergence; conditions: 13 to 15 days
Outline: as §1

[10] = system: Surinam grass (Brachiaria decumbens); assay: Test B postemergence; conditions: 13 to 15 days
Outline: as §1

[11] = system: giant foxtail (Setaria faberii); assay: Test B postemergence; conditions: 13 to 15 days
Outline: as §1

[12] = system: lambsquarters (Chenopodium album); assay: Test B postemergence; conditions: 13 to 15 days
Outline: as §1

[13] = system: morningglory (Ipomoea hederacea); assay: Test C preemergence
Outline: (§2)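 Each compound was dissolved in a non-phytotoxic solvent system containing a surfactant and sprayed either on freshly planted seeds (preemergence) or on young plants, 2 to 18 cm high (postemergence). Ratings after 12 to 14 greenhouse days ran from 0, no effect, to 100, complete control.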

[14] = system: yellow nutsedge (Cyperus esculentus); assay: Test C preemergence
Outline: as §2

[15] = system: johnsongrass (Sorghum halepense); assay: Test C preemergence
Outline: as §2

corn (Zea mays) [16] = assay: Test C preemergence
Outline: as §2

[17] = system: velvetleaf (Abutilon theophrasti); assay: Test C preemergence
Outline: as §2

kochia (Kochia scoparia) = assay: Test C preemergence
Outline: as §2

[18] = system: giant foxtail (Setaria faberii); assay: Test C preemergence
Outline: as §2

[19] = system: bermudagrass (Cynodon dactylon); assay: Test C preemergence
Outline: as §2

Sunflower [20] = assay: Test C preemergence; conditions: Rate 62 g/ha; scale 0 to 100, 0 no effect, 100 complete control
Sunflower [21] = assay: Test C preemergence; conditions: Rate 250 g/ha, visual evaluation after 12 to 14 days
[22] = Rate 125 g/ha, scale 0 (no effect) to 100 (complete control)
[23] = Rate 500 g/ha, scale 0 to 100, 0 is no effect, 100 is complete control
[24] = Rate 62 g/ha, scale 0 to 100, 0 no effect, 100 complete control
[25] = preemergence, Rate 31 g/ha, scale 0 to 100
[26] = preemergence, Rate 250 g/ha, visual evaluation after 12 to 14 days
[27] = preemergence, Rate 125 g/ha, scale 0 to 100, 0 no effect, 100 complete control

Compound: CC(C)c1ccn(C2OCN(c3cccc(C(F)(F)F)c3)C2=O)n1 (stereo not drawn) [Compound 27]
- Plant response rating, Blackgrass [1, 22]: 0
- Plant response rating, Blackgrass [1, 23]: 0
- Plant response rating, Corn (corn (Zea mays) [2]; [22]): 0
- Plant response rating, Corn (corn (Zea mays) [2]; [23]): 10
- Plant response rating, Cocklebur [3, 22]: 0
- Plant response rating, Cocklebur [3, 23]: 30
- Plant response rating, Wheat [4, 22]: 0
- Plant response rating, Wheat [4, 23]: 0
- Plant response rating, Wild Oat (wild oat (Avena fatua); [22]): 0
- Plant response rating, Wild Oat (wild oat (Avena fatua); [23]): 0
- Plant response rating, Velvetleaf [5, 22]: 0
- Plant response rating, Velvetleaf [5, 23]: 0
- Plant response rating, Morningglory [6, 22]: 0
- Plant response rating, Morningglory [6, 23]: 50
- Plant response rating, Crabgrass [7, 22]: 20
- Plant response rating, Crabgrass [7, 23]: 40
- Plant response rating, Barnyardgrass [8, 22]: 20
- Plant response rating, Barnyardgrass [8, 23]: 60
- Plant response rating, Pigweed [9, 22]: 40
- Plant response rating, Pigweed [9, 23]: 60
- Plant response rating, Surinam grass [10, 22]: 0
- Plant response rating, Surinam grass [10, 23]: 20
- Plant response rating, Foxtail, Giant [11, 22]: 0
- Plant response rating, Foxtail, Giant [11, 23]: 30
- Plant response rating, Lambsquarters [12, 22]: 50
- Plant response rating, Lambsquarters [12, 23]: 90
- Plant response rating, Morningglory [13, 24]: 20
- Plant response rating, Morningglory [13, 25]: 0
- Plant response rating (0 to 100), Morningglory [13, 26]: 30
- Plant response rating, Morningglory [13, 27]: 20
- Plant response rating, Nutsedge [14, 24]: 60
- Plant response rating, Nutsedge [14, 25]: 30
- Plant response rating (0 to 100), Nutsedge [14, 26]: 80
- Plant response rating, Nutsedge [14, 27]: 60
- Plant response rating, Johnsongrass [15, 24]: 20
- Plant response rating, Johnsongrass [15, 25]: 0
- Plant response rating (0 to 100), Johnsongrass [15, 26]: 50
- Plant response rating, Johnsongrass [15, 27]: 50
- Plant response rating, Corn (corn (Zea mays) [16]; [24]): 20
- Plant response rating, Corn (corn (Zea mays) [16]; [25]): 0
- Plant response rating (0 to 100), Corn (corn (Zea mays) [16]; [26]): 30
- Plant response rating, Corn (corn (Zea mays) [16]; [27]): 20
- Plant response rating, Velvetleaf [17, 24]: 0
- Plant response rating, Velvetleaf [17, 25]: 0
- Plant response rating (0 to 100), Velvetleaf [17, 26]: 0
- Plant response rating, Velvetleaf [17, 27]: 0
- Plant response rating, Kochia (kochia (Kochia scoparia); [24]): 100
- Plant response rating, Kochia (kochia (Kochia scoparia); [25]): 0
- Plant response rating (0 to 100), Kochia (kochia (Kochia scoparia); [26]): 100
- Plant response rating, Kochia (kochia (Kochia scoparia); [27]): 100
- Plant response rating, Foxtail, Giant [18, 24]: 70
- Plant response rating, Foxtail, Giant [18, 25]: 0
- Plant response rating (0 to 100), Foxtail, Giant [18, 26]: 0
- Plant response rating, Foxtail, Giant [18, 27]: 100
- Plant response rating, Bermudagrass [19, 24]: 90
- Plant response rating, Bermudagrass [19, 25]: 30
- Plant response rating (0 to 100 where 0 is no effect and 100 is complete control), Bermudagrass [19, 26]: 100
- Plant response rating, Bermudagrass [19, 27]: 100
- Plant response rating, Sunflower (Sunflower [20]): 20
- Plant response rating (0 to 100), Sunflower (Sunflower [21]): 20

Reference: patent US7138361B2, “Herbicidal heterocycles” (E. I. du Pont de Nemours and Company, priority 2000, dated 2006)
